The source of these data is ChEMBL document CHEMBL1155191, “Simple dihydrosphyngosine analogues with potent activity against MDR-Mycobacterium tuberculosis” (2009).

What all share (type): functional
For assay [1], the system named is Mycobacterium tuberculosis. In words: Ratio of ethambutol MIC to compound MIC for Mycobacterium tuberculosis CIB99.
Assay [2] has as its system Mycobacterium tuberculosis. In words: Ratio of ethambutol MIC to compound MIC for Mycobacterium tuberculosis H37Rv ATCC 27294.
Assay [3] concerns Mycobacterium tuberculosis. In words: Antimycobacterial activity against Mycobacterium tuberculosis H37Rv ATCC 27294 after 5 to 7 days by microplate alamar blue assay. In general terms: Resazurin is reduced to fluorescent resorufin, in cell work by metabolically active cells.
Assay [4] has as its system Mycobacterium tuberculosis. In words: Antimycobacterial activity against Mycobacterium tuberculosis CIB99 after 5 to 7 days by microplate alamar blue assay.

The structures appear in SMILES notation. Converted amounts (≈) assume the structure as drawn.

Regarding `CCCCCCCCCCCCCCC(COCc1ccccc1)NC(=O)CCCC(=O)O` (stereo not given), the Ratio in assay [1] is on record as greater than 2.3; in assay [2] it was 0.14. In addition, the MIC in assay [3] and in assay [4] was 68 µM (≈ 31.4 µg/mL) each time.
For `CCCCCCCCCCCCCCC(COCc1ccccc1)N(CC)CC` (stereo not given), the Ratio is recorded as greater than 50 in assay [1] and 3.2 in assay [2]. The MIC in assay [3] and in assay [4] was 3.1 µM (≈ 1.25 µg/mL) throughout.
`CCCCCCCCCCCCCCC(CO)NC(=O)OC(C)(C)C` (stereo not given): the Ratio is on record as greater than 5 in assay [1] and 0.12 in assay [2]. The minimum inhibitory concentration (MIC) in assay [3] and in assay [4] was 84 µM (≈ 30 µg/mL) in each case.
`CCCCCCCCCCCCCCC(N)COCc1ccccc1` (stereo not given): the Ratio in assay [1] is recorded as greater than 43; in assay [2], 2.8. Further, the MIC in assay [3] and in assay [4] was 3.6 µM (≈ 1.25 µg/mL) in each case.
For the compound `CCCCCCCCCCCCCCC(O)CNC1CCCCC1` (stereo not given), the results for the Ratio in assay [1] and in assay [2] were greater than 14 and 0.3, respectively. For the same compound, the MIC (as a rule, the lowest concentration found to suppress growth) in assay [3] was 33 µM (≈ 11.2 µg/mL); in assay [4], 11 µM (≈ 3.74 µg/mL).
On the same counts, the results for `CCCCCCCCCCCCCCC(CO)N(CC)CC` (stereo not given) are greater than 3.9, 0.5, 20 µM (≈ 6.27 µg/mL) and 40 µM (≈ 12.5 µg/mL).
In the same order, the values of `CCCCCCCCCCCCCCC(N)CO` (stereo not given) are greater than 16, 0.41, 24 µM (≈ 6.18 µg/mL) and 49 µM (≈ 12.6 µg/mL).
On the same counts, the results for `CCCCCCCCCCCCCCC(COCc1ccccc1)NC(=O)CCC(=O)O` (stereo not given) are greater than 1.1, 0.07, 140 µM (≈ 62.7 µg/mL) and 140 µM (≈ 62.7 µg/mL).
Turning to `CCCCCCCCCCCCCCC(CNC(=O)CCCC(=O)O)NC(=O)OC(C)(C)C` (stereo not given), the Ratio in assay [1] is greater than 1.2; in assay [2] it was 0.07. In addition, the MIC in assay [3] and in assay [4] was 133 µM (≈ 62.6 µg/mL) each time.
As to `CCCCCCCCCCCCCCC(CN)NC(=O)OC(C)(C)C` (stereo not given), the Ratio in assay [1] is reported as greater than 5.2; in assay [2], 0.3. The MIC in assay [3] and in assay [4] was 30 µM (≈ 10.7 µg/mL) throughout.
In the case of `CC[C@@H](CO)NCCN[C@@H](CC)CO` [ETHAMBUTOL], the Ratio in assay [1] and in assay [2] was 1 in each case. For the same compound, the MIC in assay [3] is 9.9 µM (≈ 2.02 µg/mL); in assay [4], greater than 158 µM.
In the case of `CCCCCCCCCCCCCCC(COCc1ccccc1)NCC(=O)OCC` (stereo not given), the Ratio in assay [1] is listed as greater than 2.2; in assay [2] it was 0.13. For the same compound, the MIC in assay [3] and in assay [4] was 72 µM (≈ 31.2 µg/mL) in each case.
As to `CCCCCCCCCCCCCCC(N)CN(CC)CC` (stereo not given), the Ratio in assay [1] was greater than 19; in assay [2], 2.5. Moreover, the MIC was 4 µM (≈ 1.25 µg/mL) in assay [3] and 8 µM (≈ 2.5 µg/mL) in assay [4].
For `CCCCCCCCCCCCCCC(COCc1ccccc1)NCC` (stereo not given), the Ratio is reported as greater than 9.5 in assay [1] and 0.6 in assay [2]. Besides, the MIC in assay [3] and in assay [4] was 16.6 µM (≈ 6.24 µg/mL) throughout.
Take `CCCCCCCCCCCCCCC(N)CN` (stereo not given): the Ratio in assay [1] is given as greater than 12; in assay [2], 0.8. Further, the MIC in assay [3] and in assay [4] was 12.6 µM (≈ 3.23 µg/mL) each time.
Take `CCCCCCCCCCCCCCC(O)CNCc1ccccc1` (stereo not given): the figures for the Ratio in assay [1] and in assay [2] were greater than 2.2 and 0.28, respectively. The minimum inhibitory concentration (MIC) was 36 µM (≈ 12.5 µg/mL) in assay [3] and 72 µM (≈ 25 µg/mL) in assay [4].
For `CCCCCCCCCCCCCCC(CNCC)NC(=O)OC(C)(C)C` (stereo not given), the figures for the Ratio in assay [1] and in assay [2] were greater than 4.9 and 0.3, respectively. The MIC in assay [3] and in assay [4] was 32 µM (≈ 12.3 µg/mL) throughout.
Turning to `CCCCCCCCCCCCCCC(CN(CC)CC)NC(=O)OC(C)(C)C` (stereo not given), the Ratio in assay [1] is reported as greater than 10; in assay [2], 0.65. Besides, the MIC in assay [3] and in assay [4] was 15.2 µM (≈ 6.27 µg/mL) each time.
With `CCCCCCCCCCCCCCC(CN(CC(=O)OCC)CC(=O)OCC)NC(=O)OC(C)(C)C` (stereo not given), the Ratio in assay [1] was greater than 2.7; in assay [2], 0.17. For the same compound, the MIC in assay [3] and in assay [4] was 59 µM (≈ 31.2 µg/mL) in each case.
Consider `CO[C@H]1/C=C/O[C@@]2(C)Oc3c(C)c(O)c4c(O)c(c(/C=N/N5CCN(C)CC5)c(O)c4c3C2=O)NC(=O)/C(C)=C\C=C\[C@H](C)[C@H](O)[C@@H](C)[C@@H](O)[C@@H](C)[C@H](OC(C)=O)[C@@H]1C` [RIFAMPIN], for which the values for the Ratio in assay [1] and in assay [2] were 65 and 650, respectively. Moreover, the MIC in assay [3] was 0.152 µM (≈ 0.125 µg/mL); in assay [4], greater than 2.43 µM.
